Test results as given in PMC10607160 (International Journal of Molecular Sciences, 2023).

Tests used:
[1] = Solubility issue noted in the binding experiments; assay type: physicochemical; conditions: in binding assay
Procedure: The data were fitted to a one-site competition model via nonlinear regression and the IC50 values were determined as described in Section 3.4.

human GnRHR I = target: T1, human GnRHR I (Homo sapiens, UniProt P30968); test: Competitive radioligand binding (125I-DTyr6-His5-GnRH) on membranes from HEK 293 cells stably expressing GnRHR I; conditions: competition with 125I-DTyr6-His5-GnRH, HEK 293 membranes, 4 °C 16-19 h, one-site model; read-out: apparent binding affinity (IC50)
T1 construct: expressed in transfected cells
T1 sequence (P30968 1-328): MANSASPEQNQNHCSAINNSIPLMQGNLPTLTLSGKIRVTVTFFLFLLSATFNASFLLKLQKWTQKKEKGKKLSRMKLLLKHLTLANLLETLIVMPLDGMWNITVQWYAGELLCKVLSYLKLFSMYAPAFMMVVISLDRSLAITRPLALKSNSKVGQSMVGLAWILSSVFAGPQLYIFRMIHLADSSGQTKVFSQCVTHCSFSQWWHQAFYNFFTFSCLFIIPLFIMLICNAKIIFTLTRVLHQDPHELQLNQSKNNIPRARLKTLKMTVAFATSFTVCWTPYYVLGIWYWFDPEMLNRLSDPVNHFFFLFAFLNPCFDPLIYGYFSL

[2] = target: E. coli Trx1 / E. coli TrxR (thioredoxin system) (Escherichia coli, UniProt P0AA25); test: Disulfide bond reduction assay by EcoTrx1 (NADPH absorbance at 340 nm); assay type: biochemical; conditions: for Absorbance Asample1 / Absorbance Asample2 / Absorbance Average1, 2: A340, with TrxR
Sequence of E. coli Trx1 / E. coli TrxR (thioredoxin system) (P0AA25 2-109): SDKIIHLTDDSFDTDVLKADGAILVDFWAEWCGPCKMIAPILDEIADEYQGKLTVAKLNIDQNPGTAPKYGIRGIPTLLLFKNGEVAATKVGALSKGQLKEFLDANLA
Procedure: The assay employed was based on changes in the absorbance at 340 nm from the oxidation of NADPH using a modified version of the protocol laid out in [90]. Briefly, the decrease in A340 was measured in 96-well plates containing 100 μL of 200 mM potassium phosphate pH 7.4, 1 mM EDTA, 0.1 mg/mL BSA, 200 μM NADPH, 2 μM E. coli Trx1 and 10 nM E. coli TrxR for 5 min at 25 °C with insulin at a final concentration of 0.067 mM (0.2 mM disulfides) (see Table S2). The reduction of con7 was measured at a final concentration of 0.2 mM (see Table S3). Blanks were samples without EcoTrxR.
Figure 4 Reduction of (A) con7 and (B) insulin by EcoTrx1. The assay mixture contains 200 mM potassium phosphate pH 7.4, 1 mM EDTA, 0.1 mg/mL BSA, 200 μM NADPH, 2 μM Escherichia coli Trx1, 10 nM E. coli TrxR, (A) 0.2 mM con7 or (B) 0.067 mM (0.2 mM disulfides) insulin. The reaction was carried out at 25 °C by monitoring the decrease of NADPH absorbance at 340 nm for (A) con7 in the absence ( [drawing 1] ) or presence of TrxR ( [drawing 2] ) and (B) insulin in the absence ( [drawing 3] ) or presence of TrxR ( [drawing 4] ).

CCNC(=O)[C@@H]1CCCN1C(=O)[C@H](CCCNC(=N)N)NC(=O)[C@H](CC(C)C)NC(=O)[C@@H](CSSCC(=O)NCCCCNc1ccc(O)c2c1C(=O)c1ccccc1C2=O)NC(=O)[C@H](Cc1ccc(O)cc1)NC(=O)[C@H](CO)NC(=O)[C@H](Cc1c[nH]c2ccccc12)NC(=O)[C@H](Cc1c[nH]cn1)NC(=O)[C@@H]1CCC(=O)N1 [con4]
solubility [1]: solubility issues

CCNC(=O)[C@@H]1CCCN1C(=O)[C@H](CCCNC(=N)N)NC(=O)[C@H](CC(C)C)NC(=O)[C@@H](CCCCNC(=O)CCCCCNC(=O)CCSSCC(=O)OCCNCCNc1ccc(NCCNCCO)c2c1C(=O)c1c(O)ccc(O)c1C2=O)NC(=O)[C@H](Cc1ccc(O)cc1)NC(=O)[C@H](CO)NC(=O)[C@H](Cc1c[nH]c2ccccc12)NC(=O)[C@H](Cc1c[nH]cn1)NC(=O)[C@@H]1CCC(=O)N1 [con7]
IC50 (human GnRHR I): 0.06 nM
speed of reduction compared with insulin ([2]; 0.2 mM con7 vs 0.067 mM insulin (0.2 mM disulfides), 25 °C): more rapid
Absorbance Asample1 ([2]; 0 sec): 1.004
Absorbance Asample2 ([2]; 0 sec): 0.982
Absorbance Average1, 2 ([2]; 0 sec): 0.993
Absorbance Asample1 ([2]; 9 sec): 1.004
Absorbance Asample2 ([2]; 9 sec): 0.980
Absorbance Average1, 2 ([2]; 9 sec): 0.992
Absorbance Asample1 ([2]; 18 sec): 1.004
Absorbance Asample2 ([2]; 18 sec): 0.981
Absorbance Average1, 2 ([2]; 18 sec): 0.992
Absorbance Asample1 ([2]; 27 sec): 1.003
Absorbance Asample2 ([2]; 27 sec): 0.980
Absorbance Average1, 2 ([2]; 27 sec): 0.991
Absorbance Asample1 ([2]; 36 sec): 1.002
Absorbance Asample2 ([2]; 36 sec): 0.978
Absorbance Average1, 2 ([2]; 36 sec): 0.990
Absorbance Asample1 ([2]; 45 sec): 1.000
Absorbance Asample2 ([2]; 45 sec): 0.979
Absorbance Average1, 2 ([2]; 45 sec): 0.989
Absorbance Asample1 ([2]; 54 sec): 1.000
Absorbance Asample2 ([2]; 54 sec): 0.977
Absorbance Average1, 2 ([2]; 54 sec): 0.988
Absorbance Asample1 ([2]; 63 sec): 0.999
Absorbance Asample2 ([2]; 63 sec): 0.977
Absorbance Average1, 2 ([2]; 63 sec): 0.988
Absorbance Asample1 ([2]; 72 sec): 0.999
Absorbance Asample2 ([2]; 72 sec): 0.976
Absorbance Average1, 2 ([2]; 72 sec): 0.987
Absorbance Asample1 ([2]; 81 sec): 0.998
Absorbance Asample2 ([2]; 81 sec): 0.973
Absorbance Average1, 2 ([2]; 81 sec): 0.985
Absorbance Asample1 ([2]; 90 sec): 0.997
Absorbance Asample2 ([2]; 90 sec): 0.974
Absorbance Average1, 2 ([2]; 90 sec): 0.985
Absorbance Asample1 ([2]; 99 sec): 0.996
Absorbance Asample2 ([2]; 99 sec): 0.972
Absorbance Average1, 2 ([2]; 99 sec): 0.984
Absorbance Asample1 ([2]; 108 sec): 0.996
Absorbance Asample2 ([2]; 108 sec): 0.971
Absorbance Average1, 2 ([2]; 108 sec): 0.983
Absorbance Asample1 ([2]; 117 sec): 0.995
Absorbance Asample2 ([2]; 117 sec): 0.971
Absorbance Average1, 2 ([2]; 117 sec): 0.983
Absorbance Asample1 ([2]; 126 sec): 0.994
Absorbance Asample2 ([2]; 126 sec): 0.970
Absorbance Average1, 2 ([2]; 126 sec): 0.982
Absorbance Asample1 ([2]; 135 sec): 0.992
Absorbance Asample2 ([2]; 135 sec): 0.968
Absorbance Average1, 2 ([2]; 135 sec): 0.980
Absorbance Asample1 ([2]; 144 sec): 0.991
Absorbance Asample2 ([2]; 144 sec): 0.967
Absorbance Average1, 2 ([2]; 144 sec): 0.979
Absorbance Asample1 ([2]; 153 sec): 0.990
Absorbance Asample2 ([2]; 153 sec): 0.966
Absorbance Average1, 2 ([2]; 153 sec): 0.978
Absorbance Asample1 ([2]; 162 sec): 0.990
Absorbance Asample2 ([2]; 162 sec): 0.966
Absorbance Average1, 2 ([2]; 162 sec): 0.978
Absorbance Asample1 ([2]; 171 sec): 0.989
Absorbance Asample2 ([2]; 171 sec): 0.964
Absorbance Average1, 2 ([2]; 171 sec): 0.977
Absorbance Asample1 ([2]; 180 sec): 0.989
Absorbance Asample2 ([2]; 180 sec): 0.965
Absorbance Average1, 2 ([2]; 180 sec): 0.977
Absorbance Asample1 ([2]; 189 sec): 0.989
Absorbance Asample2 ([2]; 189 sec): 0.964
Absorbance Average1, 2 ([2]; 189 sec): 0.977
Absorbance Asample1 ([2]; 198 sec): 0.988
Absorbance Asample2 ([2]; 198 sec): 0.962
Absorbance Average1, 2 ([2]; 198 sec): 0.975
Absorbance Asample1 ([2]; 207 sec): 0.986
Absorbance Asample2 ([2]; 207 sec): 0.961
Absorbance Average1, 2 ([2]; 207 sec): 0.974
Absorbance Asample1 ([2]; 216 sec): 0.987
Absorbance Asample2 ([2]; 216 sec): 0.960
Absorbance Average1, 2 ([2]; 216 sec): 0.974
Absorbance Asample1 ([2]; 225 sec): 0.985
Absorbance Asample2 ([2]; 225 sec): 0.959
Absorbance Average1, 2 ([2]; 225 sec): 0.972
Absorbance Asample1 ([2]; 234 sec): 0.984
Absorbance Asample2 ([2]; 234 sec): 0.957
Absorbance Average1, 2 ([2]; 234 sec): 0.971
Absorbance Asample1 ([2]; 243 sec): 0.984
Absorbance Asample2 ([2]; 243 sec): 0.955
Absorbance Average1, 2 ([2]; 243 sec): 0.970
Absorbance Asample1 ([2]; 252 sec): 0.982
Absorbance Asample2 ([2]; 252 sec): 0.954
Absorbance Average1, 2 ([2]; 252 sec): 0.968
Absorbance Asample1 ([2]; 261 sec): 0.982
Absorbance Asample2 ([2]; 261 sec): 0.952
Absorbance Average1, 2 ([2]; 261 sec): 0.967
Absorbance Asample1 ([2]; 270 sec): 0.980
Absorbance Asample2 ([2]; 270 sec): 0.952
Absorbance Average1, 2 ([2]; 270 sec): 0.966
Absorbance Asample1 ([2]; 279 sec): 0.981
Absorbance Asample2 ([2]; 279 sec): 0.951
Absorbance Average1, 2 ([2]; 279 sec): 0.966
Absorbance Asample1 ([2]; 288 sec): 0.979
Absorbance Asample2 ([2]; 288 sec): 0.949
Absorbance Average1, 2 ([2]; 288 sec): 0.964
Absorbance Asample1 ([2]; 297 sec): 0.978
Absorbance Asample2 ([2]; 297 sec): 0.949
Absorbance Average1, 2 ([2]; 297 sec): 0.963
reduction of disulfide bond by the thioredoxin system ([2]; decrease of NADPH absorbance over time in samples containing TrxR): successful
